Series [1] deals with HCoV-OC43. It counts as cell-based. Also on record: HCoV-OC43 viral RNA level reduced: dose or concentration left out as unconfirmed. The following applies: CB-5083 until 8 hpi, harvested 24 hpi.
The subject of series [2] is HCoV-OC43. The experiment in a line: Stage-limited inhibition assay, viral RNA at 8 hpi, HCoV-OC43 in H1299 cells. It counts as cell-based. The following applies: for viral RNA levels vs vehicle control, inhibitors throughout the experiment (group 2): 1 mM CB-5083 or 2 mM NMS-873, 30 min before infection to 8 hpi, harvested 8 hpi; for viral RNA levels, early treatment (group 3: pretreatment to 0 hpi): 1 mM CB-5083 or 2 mM NMS-873, harvested 8 hpi. Here is the method:
(§1) Total cell RNA was extracted using the MagMAX mirVana Total RNA Isolation Kit (Thermo Fisher Scientific) with KingFisher systems (Thermo Fisher Scientific). RNA was quantified using NanoDrop Lite Spectrophotometer (Thermo Fisher Scientific). Total RNA ([…]) was reverse transcribed using the High-Capacity cDNA Reverse Transcription Kit (Thermo Fisher Scientific). cDNA samples were used for quantitative TagMan PCR using TaqMan™ Universal Master Mix II, no UNG (Thermo Fisher Scientific), in an QuantStudio™ 5 System (Thermo Fisher Scientific). FAM-MGB-labeled TaqMan probes for the indicated genes were purchased from Thermo Fisher Scientific. The resulting data were analyzed using Excel and GraphPad Prism 8.
(§2) H1299 cells were treated with 0.1% DMSO, […] CB-5083, or […] of NMS-873 from 30 min prior to virus infection until 8 h post-infection. […] Cells were collected at 8 hpi for viral RNA determination.

The next series concerns H1299 cells. The conditions noted are these: cell viability at 72 hpi, normalized to mock-infected DMSO-treated control.
For series [3], the system named is HCoV-229E. Briefly: Titer of secreted virus in culture media by TCID50 in H1299 cells, HCoV-229E. Format: cell-based.
Series [4] has as its system HCoV-OC43. The following applies: HCoV-OC43, CB-5083 0.5 mM, 8 hpi.
Procedure: Cells were fixed with cold 4% paraformaldehyde for 15 min followed by permeabilization/blocking with 10% FBS and 0.2% Triton X-100 for another 1 h. Cells were stained with mouse anti-dsRNA antibody clone rJ2 (1:50) (Sigma-Aldrich, MABE1134) followed by labeling with anti-mouse mouse secondary antibody conjugated to Alexa-488 (Thermo Fisher Scientific). Nuclei were stained with Hoechst. Fluorescent images were acquired using Thermo Scientific™ Invitrogen™ EVOS™ FL Auto 2 Imaging System.
Cells were treated with the indicated concentration of CB-5083 and infected with virus. After 1 h of infection, cells were washed three times with serum-free media and then returned to media containing 2% FBS and the same concentration of CB-5083.
For series [5], the system named is HCoV-229E. The experiment in a line: Stage-limited inhibition assay, viral RNA at 8 hpi, HCoV-229E in H1299 cells. Format: cell-based. The arrangement: dose or concentration left out as unconfirmed. How it is done:
as §1, §2

Series [6] has as its system HCoV-infected H1299 cells. The following applies: CB-5083 0.5 mM until 8 hpi, viability at 72 hpi.
Procedure: Cells were seeded using 2×10^5 cells per well in 96-well plates and incubated overnight at 37° C. Cells were treated with the indicated concentration of CB-5083 and infected with virus or mock infected. After 1 h of infection, cells were washed three times with serum-free media and then cultured with media containing 10% FBS and the same concentration of CB-5083. Cultured media was replaced with fresh media at 8 hpi. At 72 hpi, cell viability was measured by CellTiter-Glo® Luminescent Cell Viability Assay (Promega).
In series [7] the test system is HCoV-229E. Format: cell-based.
Series [8] has as its system HCoV-229E.
For series [9], the system named is HCoV-OC43. The experiment in a line: Titer of secreted virus in culture media by TCID50 in H1299 cells, HCoV-OC43. It counts as cell-based.

Consider 2 compounds from US20230002774A1, “METHODS AND COMPOSTIONS FOR INHIBITING CORONAVIRAL REPLICATION” (California Institute of Technology, priority 2021, published 2023).

Read-outs that look alike come from different tables or passages of the source.

As to `Cc1cc2c(C(N)=O)cccc2n1-c1nc2c(c(NCc3ccccc3)n1)COCC2` [CB-5083], in the series with HCoV-OC43 [1], the “HCoV-OC43 viral RNA level reduced” value was “about 40%” and the “HCoV-OC43 viral RNA level, effect of different doses” value is listed as “reduced by CB-5083 in a dose-dependent manner”. Besides, in the series on HCoV-OC43 [2], the “viral RNA levels vs vehicle control, inhibitors throughout the experiment (group 2)” value is reported as “Extensive reduction” and the “viral RNA levels, early treatment (group 3: pretreatment to 0 hpi)” value (shortened to “viral RNA levels, early treatment”) was “only minor or no effects”. The “toxicity of the tested concentrations to H1299 cells” value in the series with H1299 cells was “non-toxic”. For the same compound, in the series on HCoV-229E [3], the “viral titer of secreted HCoV-229E decreased” value was roughly 81%. In addition, the “dsRNA signals (immunostaining)” value with HCoV-OC43 [4] is recorded as “lower dsRNA signals”. In addition, in the series with HCoV-229E [5], the “viral RNA levels vs vehicle control, inhibitors throughout the experiment (group 2)” value was “Extensive reduction” and the “viral RNA levels, early treatment” value is given as “only minor or no effects”. Also, the “cell viability increased compared to HCoV-infected and DMSO-treated control” value in series [6] is listed as roughly 29%. Besides, in the series with HCoV-229E [7], the “HCoV-229E viral RNA level reduced” value is listed as “about 47%” and the “HCoV-229E viral RNA level, effect of different doses” value is reported as “reduced by CB-5083 in a dose-dependent manner”. Besides, in the series on HCoV-229E [8], the “dsRNA signals (immunostaining)” value was “lower dsRNA signals”. Further, the “viral titer of secreted HCoV-OC43 decreased” value in the series with HCoV-OC43 [9] is on record as roughly 85%.

Consider `Cc1cc(OCc2nnc(SC3CCCC3)n2-c2cccnc2)ccc1-c1ccc(S(C)(=O)=O)cc1` [NMS-873, 3-[3-cyclopentylsulfanyl-5-[[3-methyl-4-(4-methylsulfonylphenyl)phenoxy]methyl]-1,2,4-triazol-4-yl]pyridine], for which the “viral RNA levels vs vehicle control, inhibitors throughout the experiment (group 2)” value in the series with HCoV-OC43 [2] was “Extensive reduction”; in the series on HCoV-229E [5] (HCoV-229E, 30 min before infection to 8 hpi, harvested 8 hpi), “Extensive reduction”. The “viral RNA levels, early treatment” value is given as “only minor or no effects” in the series with HCoV-OC43 [2] and “only minor or no effects” in the series with HCoV-229E [5] (HCoV-229E, harvested 8 hpi).
